The CheMixHub viscosity set
± gives the uncertainty stated by the source.

Assay: xn = mol fraction of the nth substance listed

COC(=O)CC(=O)OC + c1ccccc1
viscosity (303.15 K, 101 kPa, x1 = 0.0794): 0.6916 ± 0.007 mPa·s | viscosity (303.15 K, 101 kPa, x1 = 0.1634): 0.8208 ± 0.0082 mPa·s | viscosity (303.15 K, 101 kPa, x1 = 0.2505): 0.9519 ± 0.0094 mPa·s | viscosity (303.15 K, 101 kPa, x1 = 0.3426): 1.078 ± 0.011 mPa·s | viscosity (303.15 K, 101 kPa, x1 = 0.4381): 1.206 ± 0.012 mPa·s | viscosity (303.15 K, 101 kPa, x1 = 0.5395): 1.341 ± 0.013 mPa·s | viscosity (303.15 K, 101 kPa, x1 = 0.6457): 1.456 ± 0.014 mPa·s | viscosity (303.15 K, 101 kPa, x1 = 0.7579): 1.58 ± 0.015 mPa·s | viscosity (303.15 K, 101 kPa, x1 = 0.8751): 1.696 ± 0.017 mPa·s

Brc1ccccc1 + CCC(C)=O
viscosity (303.15 K, 101 kPa, x2 = 0.1487): 0.899 ± 0.004 mPa·s | viscosity (303.15 K, 101 kPa, x2 = 0.2073): 0.858 ± 0.004 mPa·s | viscosity (303.15 K, 101 kPa, x2 = 0.3888): 0.74 ± 0.004 mPa·s | viscosity (303.15 K, 101 kPa, x2 = 0.5263): 0.656 ± 0.004 mPa·s | viscosity (303.15 K, 101 kPa, x2 = 0.7046): 0.556 ± 0.004 mPa·s | viscosity (303.15 K, 101 kPa, x2 = 0.8307): 0.486 ± 0.004 mPa·s

FB(F)F + CCOc1ccccc1
viscosity (293.15 K, 101 kPa, x1 = 0.00901): 1.29 ± 0.05 mPa·s | viscosity (293.15 K, 101 kPa, x1 = 0.1455): 1.53 ± 0.06 mPa·s | viscosity (293.15 K, 101 kPa, x1 = 0.2874): 2.42 ± 0.1 mPa·s | viscosity (293.15 K, 101 kPa, x1 = 0.3269): 2.79 ± 0.11 mPa·s | viscosity (293.15 K, 101 kPa, x1 = 0.3742): 3.38 ± 0.14 mPa·s | viscosity (293.15 K, 101 kPa, x1 = 0.3817): 3.48 ± 0.14 mPa·s | viscosity (293.15 K, 101 kPa, x1 = 0.4143): 4 ± 0.16 mPa·s | viscosity (293.15 K, 101 kPa, x1 = 0.4429): 4.57 ± 0.19 mPa·s | viscosity (293.15 K, 101 kPa, x1 = 0.456): 4.87 ± 0.2 mPa·s | viscosity (293.15 K, 101 kPa, x1 = 0.4744): 5.39 ± 0.22 mPa·s | viscosity (293.15 K, 101 kPa, x1 = 0.4962): 6.02 ± 0.24 mPa·s | viscosity (298.15 K, 101 kPa, x1 = 0.00901): 1.18 ± 0.05 mPa·s | viscosity (298.15 K, 101 kPa, x1 = 0.1455): 1.39 ± 0.06 mPa·s | viscosity (298.15 K, 101 kPa, x1 = 0.2874): 2.17 ± 0.09 mPa·s | viscosity (298.15 K, 101 kPa, x1 = 0.3269): 2.51 ± 0.1 mPa·s | viscosity (298.15 K, 101 kPa, x1 = 0.3742): 3.01 ± 0.12 mPa·s | viscosity (298.15 K, 101 kPa, x1 = 0.3817): 3.1 ± 0.13 mPa·s | viscosity (298.15 K, 101 kPa, x1 = 0.4143): 3.52 ± 0.14 mPa·s | viscosity (298.15 K, 101 kPa, x1 = 0.4429): 3.97 ± 0.16 mPa·s | viscosity (298.15 K, 101 kPa, x1 = 0.456): 4.24 ± 0.17 mPa·s | viscosity (298.15 K, 101 kPa, x1 = 0.4744): 4.69 ± 0.19 mPa·s | viscosity (298.15 K, 101 kPa, x1 = 0.4962): 5.19 ± 0.21 mPa·s | viscosity (303.15 K, 101 kPa, x1 = 0.00901): 1.08 ± 0.04 mPa·s | viscosity (303.15 K, 101 kPa, x1 = 0.1455): 1.27 ± 0.05 mPa·s | viscosity (303.15 K, 101 kPa, x1 = 0.2874): 1.96 ± 0.08 mPa·s | viscosity (303.15 K, 101 kPa, x1 = 0.3269): 2.25 ± 0.09 mPa·s | viscosity (303.15 K, 101 kPa, x1 = 0.3742): 2.68 ± 0.11 mPa·s | viscosity (303.15 K, 101 kPa, x1 = 0.3817): 2.74 ± 0.11 mPa·s | viscosity (303.15 K, 101 kPa, x1 = 0.4143): 3.08 ± 0.13 mPa·s | viscosity (303.15 K, 101 kPa, x1 = 0.4429): 3.5 ± 0.14 mPa·s | viscosity (303.15 K, 101 kPa, x1 = 0.456): 3.7 ± 0.15 mPa·s | viscosity (303.15 K, 101 kPa, x1 = 0.4744): 4.06 ± 0.16 mPa·s | viscosity (303.15 K, 101 kPa, x1 = 0.4962): 4.48 ± 0.18 mPa·s

BrCCBr + Cc1ccccc1C
viscosity (298.15 K, 101.33 kPa, x1 = 0.1292): 0.7932 ± 0.0099 mPa·s | viscosity (298.15 K, 101.33 kPa, x1 = 0.261): 0.8771 ± 0.011 mPa·s | viscosity (298.15 K, 101.33 kPa, x1 = 0.3856): 0.9602 ± 0.012 mPa·s | viscosity (298.15 K, 101.33 kPa, x1 = 0.4919): 1.032 ± 0.012 mPa·s | viscosity (298.15 K, 101.33 kPa, x1 = 0.585): 1.098 ± 0.013 mPa·s | viscosity (298.15 K, 101.33 kPa, x1 = 0.6529): 1.182 ± 0.014 mPa·s | viscosity (298.15 K, 101.33 kPa, x1 = 0.7597): 1.263 ± 0.015 mPa·s | viscosity (298.15 K, 101.33 kPa, x1 = 0.8472): 1.374 ± 0.016 mPa·s | viscosity (298.15 K, 101.33 kPa, x1 = 0.9267): 1.487 ± 0.017 mPa·s | viscosity (308.15 K, 101.33 kPa, x1 = 0.1371): 0.5822 ± 0.0073 mPa·s | viscosity (308.15 K, 101.33 kPa, x1 = 0.2566): 0.6257 ± 0.0078 mPa·s | viscosity (308.15 K, 101.33 kPa, x1 = 0.3821): 0.6992 ± 0.0086 mPa·s | viscosity (308.15 K, 101.33 kPa, x1 = 0.4845): 0.7526 ± 0.0091 mPa·s | viscosity (308.15 K, 101.33 kPa, x1 = 0.5874): 0.8292 ± 0.01 mPa·s | viscosity (308.15 K, 101.33 kPa, x1 = 0.6798): 0.9216 ± 0.011 mPa·s | viscosity (308.15 K, 101.33 kPa, x1 = 0.7647): 1.018 ± 0.012 mPa·s | viscosity (308.15 K, 101.33 kPa, x1 = 0.8499): 1.154 ± 0.013 mPa·s | viscosity (308.15 K, 101.33 kPa, x1 = 0.9228): 1.273 ± 0.015 mPa·s

CCC(C)Cl (stereo not drawn) + C1CCOC1
viscosity (298.15 K, 101 kPa, x2 = 0.0544): 0.3967 ± 0.0052 mPa·s | viscosity (298.15 K, 101 kPa, x2 = 0.111): 0.3999 ± 0.0052 mPa·s | viscosity (298.15 K, 101 kPa, x2 = 0.2078): 0.4057 ± 0.0052 mPa·s | viscosity (298.15 K, 101 kPa, x2 = 0.2947): 0.411 ± 0.0052 mPa·s | viscosity (298.15 K, 101 kPa, x2 = 0.3996): 0.4176 ± 0.0051 mPa·s | viscosity (298.15 K, 101 kPa, x2 = 0.5075): 0.4246 ± 0.0051 mPa·s | viscosity (298.15 K, 101 kPa, x2 = 0.6041): 0.4313 ± 0.0051 mPa·s | viscosity (298.15 K, 101 kPa, x2 = 0.7055): 0.4387 ± 0.0051 mPa·s | viscosity (298.15 K, 101 kPa, x2 = 0.8076): 0.4469 ± 0.0051 mPa·s | viscosity (298.15 K, 101 kPa, x2 = 0.9065): 0.4551 ± 0.0051 mPa·s | viscosity (298.15 K, 101 kPa, x2 = 0.9544): 0.4592 ± 0.0051 mPa·s

C=CC[P+](c1ccccc1)(c1ccccc1)c1ccccc1.[Br-] + OCCOCCOCCO
viscosity (293.15 K, 100 kPa, x1 = 0.05879): 76.63 ± 2.9 mPa·s | viscosity (293.15 K, 100 kPa, x1 = 0.0909): 95.29 ± 5.9 mPa·s | viscosity (293.15 K, 100 kPa, x1 = 0.2): 233.7 ± 14 mPa·s | viscosity (298.15 K, 100 kPa, x1 = 0.05879): 57.94 ± 1.9 mPa·s | viscosity (298.15 K, 100 kPa, x1 = 0.0909): 71.69 ± 4 mPa·s | viscosity (298.15 K, 100 kPa, x1 = 0.2): 166.5 ± 8.3 mPa·s | viscosity (303.15 K, 100 kPa, x1 = 0.05879): 44.82 ± 1.5 mPa·s | viscosity (303.15 K, 100 kPa, x1 = 0.0909): 54.83 ± 2.8 mPa·s | viscosity (303.15 K, 100 kPa, x1 = 0.2): 121.6 ± 5.2 mPa·s | viscosity (308.15 K, 100 kPa, x1 = 0.05879): 35.26 ± 1.1 mPa·s | viscosity (308.15 K, 100 kPa, x1 = 0.0909): 42.76 ± 2.1 mPa·s | viscosity (308.15 K, 100 kPa, x1 = 0.2): 90.91 ± 3.3 mPa·s | viscosity (313.15 K, 100 kPa, x1 = 0.05879): 28.28 ± 0.88 mPa·s | viscosity (313.15 K, 100 kPa, x1 = 0.0909): 33.94 ± 1.6 mPa·s | viscosity (313.15 K, 100 kPa, x1 = 0.2): 69.36 ± 2.3 mPa·s | viscosity (318.15 K, 100 kPa, x1 = 0.05879): 22.99 ± 0.7 mPa·s | viscosity (318.15 K, 100 kPa, x1 = 0.0909): 27.41 ± 1.2 mPa·s | viscosity (318.15 K, 100 kPa, x1 = 0.2): 53.99 ± 1.6 mPa·s | viscosity (323.15 K, 100 kPa, x1 = 0.05879): 18.97 ± 0.56 mPa·s | viscosity (323.15 K, 100 kPa, x1 = 0.0909): 22.42 ± 0.93 mPa·s | viscosity (323.15 K, 100 kPa, x1 = 0.2): 42.73 ± 1.3 mPa·s
